EP0167553B1, “NEW THERAPEUTICAL APPLICATION OF AN INDANE DIONE DERIVATIVE AND PHARMACEUTICAL COMPOSITIONS INTENDED TO SAID UTILIZATION” (priority 1983, dated 1985)

Key:
[1] = Earlier anti-inflammatory test; type: in vivo; settings: dose de 250 mg/kg
Rat Wistar = assay: Hyperlipidaemia induced by Triton WR 1339 injection; type: in vivo; design: Triglycérides, score par rapport au Procétofène 250 mg/kg: scale not given here
Text: L'hyperlipidémie par injection de Triton WR 1339 (marque de fabrique), réalisée chez le Rat Wistar, est antagonisée ou diminuée par l'administration d'agents hypolipémiants.
• - Rats Wistar mâles. • - Poids corporel: 150 -180 grammes. • - Animaux E.O.P.S. (Exempts d'Organisme Pathogène Spécifique). • - Alimentation UAR A04 • - Eau de boisson à volonté • - 6 animaux par lot de traitement et par cage MAKROLON SAFI (marque de fabrique) 60 X 40 cm, sur litière de copeaux de bois dépoussiérés • - Cages placées dans un module animalerie climatisé (19 à 21°C) à degré hygrométrique constant (40 à 60 p.100), dans lequel l'air est renouvelé 10 fois par heure, 12 heures d'éclairement par jour.
• . - 18 h: mise à jeun. • . Temps 0 - administration du Triton WR 1339® (400 mg/kg IP.). • . + 10 mn: administration du produit étudié. • - + 6 h: 1er prélèvement sanguin au sinus rétro-orbitaire. • . + 24 h: 2ème prélèvement sanguin au sinus rétro-orbitaire.
L'essai comporte 8 lots dont un lot témoin (animaux sains) et un lot témoin triton (Tableau I).

[2] = 125 mg/kg, 6 heures after Triton
[3] = 125 mg/kg, 24 heures after Triton
[4] = 250 mg/kg, 6 heures after Triton
[5] = 250 mg/kg, 24 heures after Triton
[6] = 500 mg/kg, 6 heures after Triton
[7] = 500 mg/kg, 24 heures after Triton
[8] = 750 mg/kg, 6 heures after Triton
[9] = 750 mg/kg, 24 heures after Triton

In the case of `COc1ccc(C(=O)CC2(O)C(=O)c3ccccc3C2=O)cc1OC` [Produit de l'invention, 2-[(3,4-dimethoxybenzoyl)methyl] 2-hydroxy 1,3-dioxo indane], the effet anti-inflammatoire [1] is reported as “effet liminaire anti-inflammatoire”, the “Chol. Total, score par rapport au Procétofène 250 mg/kg” value (“Chol. Total” for short) (Rat Wistar; [2]) is reported as 2.44 and the “Score Total par rapport au Procétofène 250 mg/kg” value (Rat Wistar; [2]) is reported as 2.75. For the same molecule, the “Triglycérides, score par rapport au Procétofène 250 mg/kg” value (Rat Wistar; [2]) was 0.31, the “Chol. HDL/ LDL, score par rapport au Procétofène 250 mg/kg” value (shortened to “Chol. HDL/ LDL”) (Rat Wistar; [3]) was 1.40 and the “Chol. Total” value (Rat Wistar; [3]) was 0.28. The “Score Total par rapport au Procétofène 250 mg/kg” value (Rat Wistar; [3]) was 1.94, the “Triglycérides, score par rapport au Procétofène 250 mg/kg” value (Rat Wistar; [3]) was 0.26 and the “Chol. HDL/ LDL” value (Rat Wistar; [4]) was 0.87. For the same molecule, the “Chol. Total” value (Rat Wistar; [4]) was 1.15, the “Lipides Totaux, score par rapport au Procétofène 250 mg/kg” value (“Lipides Totaux” for short) (Rat Wistar; [4]) was 0.92 and the “Score Total par rapport au Procétofène 250 mg/kg” value (Rat Wistar; [4]) was 3.74. For the same molecule, the “Triglycérides, score par rapport au Procétofène 250 mg/kg” value (Rat Wistar; [4]) was 0.80, the “Chol. HDL/ LDL” value (Rat Wistar; [5]) was 1.10 and the “Chol. Total” value (Rat Wistar; [5]) was 1.13. For the same molecule, the “Lipides Total, score par rapport au Procétofène 250 mg/kg” value (Rat Wistar; [5]) was 1.56, the “Score Total par rapport au Procétofène 250 mg/kg” value (Rat Wistar; [5]) was 4.64 and the “Triglycérides, score par rapport au Procétofène 250 mg/kg” value (Rat Wistar; [5]) was 0.85. The “Chol. HDL/ LDL” value (Rat Wistar; [6]) was 2.00, the “Chol. Total” value (Rat Wistar; [6]) was 0.35 and the “Lipides Totaux” value (Rat Wistar; [6]) was 1.00. The “Score Total par rapport au Procétofène 250 mg/kg” value (Rat Wistar; [6]) was 4.95, the “Triglycérides, score par rapport au Procétofène 250 mg/kg” value (Rat Wistar; [6]) was 1.60 and the “Chol. HDL/ LDL” value (Rat Wistar; [7]) was 0.80. For the same molecule, the “Chol. Total” value (Rat Wistar; [7]) was 0.75, the “Lipides Total, score par rapport au Procétofène 250 mg/kg” value (Rat Wistar; [7]) was 1.62 and the “Score Total par rapport au Procétofène 250 mg/kg” value (Rat Wistar; [7]) was 3.66. The “Triglycérides, score par rapport au Procétofène 250 mg/kg” value (Rat Wistar; [7]) was 0.49, the “Chol. Total” value (Rat Wistar; [8]) was 0.78 and the “Lipides Totaux” value (Rat Wistar; [8]) was 0.14. The “Score Total par rapport au Procétofène 250 mg/kg” value (Rat Wistar; [8]) was 1.72, the “Triglycérides, score par rapport au Procétofène 250 mg/kg” value (Rat Wistar; [8]) was 0.80 and the “Chol. HDL/ LDL” value (Rat Wistar; [9]) was 0.40. For the same molecule, the “Chol. Total” value (Rat Wistar; [9]) was 0.61, the “Score Total par rapport au Procétofène 250 mg/kg” value (Rat Wistar; [9]) was 1.73 and the “Triglycérides, score par rapport au Procétofène 250 mg/kg” value (Rat Wistar; [9]) was 0.72. The “hyperlipémie provoquée par le Triton WR 1339” value (Rat Wistar; dès la dose de 125 mg/kg par voie orale, Rat) was “antagonisée au diminuée”.
